Data on 56 molecules can be found in ChEMBL document CHEMBL3763116, “Synthesis and evaluation of colletoic acid core derivatives” (Eur J Med Chem, 2016).

As a reminder, the IC50 is the concentration that inhibits the measured activity by half. A word on the EC50: it is the concentration needed to bring the measured effect to its halfway point. Lower therefore signals a more potent agent.

SMILES strings stand for the structures.

In assay [1] the target is 11-beta-hydroxysteroid dehydrogenase 1 (Homo sapiens, UniProt P28845). The experiment in a line: Inhibition of 11beta-HSD1 (unknown origin) using cortisol as substrate assessed as NADPH formation by fluorescent plate reader analysis.
Sequence of 11-beta-hydroxysteroid dehydrogenase 1 (P28845 whole entry): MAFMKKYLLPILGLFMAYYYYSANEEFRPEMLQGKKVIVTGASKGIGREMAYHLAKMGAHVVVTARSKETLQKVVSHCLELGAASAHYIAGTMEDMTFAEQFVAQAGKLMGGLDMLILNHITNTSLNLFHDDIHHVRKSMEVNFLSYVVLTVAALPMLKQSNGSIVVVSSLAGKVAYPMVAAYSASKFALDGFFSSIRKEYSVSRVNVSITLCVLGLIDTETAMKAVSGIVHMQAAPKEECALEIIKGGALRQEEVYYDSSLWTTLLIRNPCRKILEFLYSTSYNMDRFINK
The target of assay [2] is T1, 11-beta-hydroxysteroid dehydrogenase type 2 (Homo sapiens, UniProt P80365).
T1 sequence (P80365 whole entry): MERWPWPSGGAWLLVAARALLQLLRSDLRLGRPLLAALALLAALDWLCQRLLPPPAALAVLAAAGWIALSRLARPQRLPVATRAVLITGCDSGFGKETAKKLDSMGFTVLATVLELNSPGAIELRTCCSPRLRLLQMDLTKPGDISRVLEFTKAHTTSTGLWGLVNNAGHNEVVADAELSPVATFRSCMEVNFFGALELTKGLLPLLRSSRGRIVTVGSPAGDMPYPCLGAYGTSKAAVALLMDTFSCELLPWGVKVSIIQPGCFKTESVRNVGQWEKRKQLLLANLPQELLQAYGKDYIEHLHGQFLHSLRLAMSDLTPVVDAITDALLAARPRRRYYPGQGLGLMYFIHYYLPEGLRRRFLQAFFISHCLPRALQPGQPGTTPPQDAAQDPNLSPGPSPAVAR
Description: Inhibition of full length human 11beta-HSD2 expressed in HEK293 cells using […] as substrate incubated for 2 hrs by HTRF assay in presence of NAD+. The assay is classed as cell-based. On the technique in general: Time-resolved FRET reads energy transfer from a long-lived donor to a nearby acceptor.

A further assay concerns BJ. Description: Cytotoxicity against human BJ cells after 72 hrs by Cell TitreGlo assay. The assay is classed as cell-based.

For the molecule `CC(C)=CCC/C(C)=C/CNC(=O)[C@H]1CC=C(C(C)C)[C@]12C=CC(=O)CC2`, the half-inhibitory concentration (IC50) in assay [1] was 18 µM; in assay [2], more than 1000 µM. Moreover, in the assay with BJ, the EC50 is more than 90 µM.
As to `C=C1CC[C@H](C(=O)OCC)[C@@]12C=CC(=O)CC2`, in assay [1], the IC50 is more than 1000 µM. In addition, the EC50 with BJ was more than 90 µM.
As to `CC1=CC[C@H](CO)[C@@]12C=CC(=O)CC2`, the IC50 in assay [1] was more than 1000 µM. Besides, the EC50 with BJ was more than 90 µM.
The matching figures for `CCOC(=O)[C@H]1CC[C@@H](C(C)C)[C@]12C=CC(=O)CC2`: more than 1000 µM and more than 90 µM.
Taken in the same sequence, the figures for `CC(C)C1=CC[C@H]2C(=O)O[C@@H]3CC(=O)CC[C@@]132` were more than 1000 µM and more than 90 µM.
Taken in the same sequence, the figures for `CC(C)[C@@H]1CC[C@@H]2CO[C@@H]3[C@H](O)[C@](C)(O)CC[C@]231` were more than 1000 µM and more than 90 µM.
As for `CC(C)[C@@H]1CC[C@H](CO)[C@]12CC[C@@](C)(O)C[C@H]2O`, the IC50 in assay [1] is more than 1000 µM. The same molecule gave an EC50 in the assay on BJ of more than 90 µM.
Regarding `CCn1c2ccccc2c2nnc(S(=O)(=O)C[C@H]3CC=C(C(C)C)[C@]34C=CC(=O)CC4)nc21`, the IC50 is 74 µM in assay [1] and more than 1000 µM in assay [2]. This molecule gave an EC50 in the assay on BJ of more than 90 µM.
Regarding `CC(C)C1=CC[C@H](CS(=O)(=O)c2nc3ccccc3o2)[C@@]12C=CC(=O)CC2`, the IC50 in assay [1] and in assay [2] was more than 1000 µM throughout. This molecule also registered an EC50 in the assay with BJ of more than 90 µM.
With `C=C1CC[C@]2(C[C@@H]1OC(C)=O)[C@@H](C(=O)OCC)CC[C@H]2C(C)C`, the IC50 in assay [1] was more than 1000 µM. In the assay with BJ, this molecule returned an EC50 of more than 90 µM.
The matching figures for `O=C1C=C[C@@]2(CC1)c1ccccc1C[C@@H]2C(=O)O`: more than 1000 µM and more than 90 µM.
In the case of `CC(C)C1=CC[C@H](CS(=O)(=O)c2nnnn2-c2ccccc2)[C@@]12C=CC(=O)CC2`, the IC50 is 245 µM in assay [1] and more than 1000 µM in assay [2]. This molecule also gave an EC50 in the assay on BJ of more than 90 µM.
For the molecule `CC(C)(C)[Si](C)(C)OCCC1=CC[C@H](CO)[C@@]12C=CC(=O)CC2`, the IC50 in assay [1] is more than 1000 µM. In addition, the EC50 in the assay on BJ is more than 90 µM.
On to `O=C1C=C[C@@]2(CC1)C(c1ccccc1)=CC[C@@H]2CO`, for which the concentration for half-maximal inhibition (IC50) in assay [1] was more than 1000 µM. The EC50 with BJ is more than 90 µM.
For `CCOC[C@H]1CC=C(C(C)C)[C@]12C=CC(=O)CC2`, the IC50 in assay [1] is more than 1000 µM. In the assay with BJ, this molecule displayed an EC50 of more than 90 µM.
The matching figures for `C[C@@]1(O)CC[C@]23c4ccccc4C[C@@H]2CO[C@@H]3[C@@H]1O`: more than 1000 µM and more than 90 µM.
In the case of `CC(C)C1=CC[C@H](CO)[C@]12CC[C@](C)(O)[C@H]1O[C@H]12`, the IC50 in assay [1] is more than 1000 µM. In the assay on BJ, this molecule yielded a 50% effective concentration (EC50) of more than 90 µM.
For `CC(C)C1=CC[C@H](CSc2nc3ccccc3s2)[C@@]12C=CC(=O)CC2`, the IC50 in assay [1] and in assay [2] was more than 1000 µM in each case. For the same molecule, in the assay with BJ, the EC50 was more than 90 µM.
`CC(C)C1=CC[C@H](CO)C12CCC(=O)CC2`: the IC50 in assay [1] is more than 1000 µM. The molecule further registered an EC50 in the assay on BJ of more than 90 µM.
The matching figures for `CC(C)[C@@H]1CC[C@H](CO)[C@]12CC[C@@](C)(O)[C@H]1O[C@H]12`: more than 1000 µM and more than 90 µM.
As to `COC1(OC)C=C[C@@]2(CC1)C(C(C)C)=CC[C@@H]2CO`, in assay [1], the IC50 was more than 1000 µM. The EC50 with BJ was more than 90 µM.
As to `CC(C)C1=CC[C@H](CS(=O)(=O)c2ccc3ccccc3c2)[C@@]12C=CC(=O)CC2`, the IC50 in assay [1] is 8 µM; in assay [2] it was more than 1000 µM. Also, the EC50 with BJ is more than 90 µM.
The matching figures for `CC(C)C1=CC[C@H](C(=O)Nc2ncc(-c3ccc(Cl)cc3)s2)[C@@]12C=CC(=O)CC2`: 122 µM, more than 1000 µM and more than 90 µM.
In the case of `O=C1C=C[C@@]2(CC1)C(COCc1ccccc1)=CC[C@@H]2CO`, in assay [1], the IC50 is more than 1000 µM. The molecule also showed a half-maximal effective concentration (EC50) in the assay with BJ of more than 90 µM.
The matching figures for `CC(C)C1=CC[C@H](CO)[C@]12CC[C@@](C)(O)[C@@H](O)C2`: more than 1000 µM and more than 90 µM.
As to `CC(C)C1=CC[C@H](CS(=O)(=O)c2nc3ccccc3s2)[C@@]12C=CC(=O)CC2`, the IC50 in assay [1] and in assay [2] was more than 1000 µM in each case. In the assay with BJ, the EC50 is more than 90 µM.
Regarding `CC(C)C1=CC[C@H](C(=O)O)[C@@]12C=CC(=O)CC2`, in assay [1], the half-inhibitory concentration (IC50) was more than 1000 µM. This molecule returned an EC50 with BJ of more than 90 µM.
Take `CC(C)[C@@H]1CC[C@H](CO)[C@]12CC[C@@](C)(O)[C@@H](O)C2`: the IC50 in assay [1] was more than 1000 µM. In the assay on BJ, this molecule displayed an EC50 of more than 90 µM.
The matching figures for `C=C1C(=O)C[C@]2(C[C@@H]1OC(C)=O)[C@@H](C(=O)OCC)CC[C@H]2C(C)C`: more than 1000 µM and more than 90 µM.
Consider `CC(C)[C@@H]1CC[C@H](CO)[C@]12CC[C@](C)(O)[C@H]1O[C@H]12`, for which, in assay [1], the IC50 was more than 1000 µM. The EC50 with BJ was more than 90 µM.
Taken in the same sequence, the figures for `CC1=CC[C@@]2(c3ccccc3C[C@@H]2C(=O)O)[C@H](O)[C@@H]1O` were more than 1000 µM and more than 90 µM.
Taken in the same sequence, the figures for `CC(C)C1=CC[C@H](CO)[C@@]12C=CC(=O)CC2` were more than 1000 µM and more than 90 µM.
With `CC(C)C1=CC(=O)[C@H](CO[Si](C)(C)C(C)(C)C)[C@@]12C=C[C@](C)(O)CC2`, the IC50 in assay [1] is more than 1000 µM. Also, the EC50 with BJ is more than 90 µM.
Turning to `CCCCCCSc1nnc(SC[C@H]2CC=C(C(C)C)[C@]23C=CC(=O)CC3)s1`, the IC50 in assay [1] and in assay [2] was more than 1000 µM in each case. The same molecule gave an EC50 with BJ of more than 90 µM.
In the case of `CC1=CC[C@@]2(CC1)C(C(C)C)=CC[C@@H]2CO`, the IC50 in assay [1] was more than 1000 µM. In the assay with BJ, this molecule showed an EC50 of more than 90 µM.
Taken in the same sequence, the figures for `CC1=CC(=O)[C@@]2(CC1)C(C(C)C)=CC[C@@H]2CO[Si](C)(C)C(C)(C)C` were more than 1000 µM and more than 90 µM.
Turning to `CC(C)[C@@H]1CC[C@@H]2CO[C@@H]3C[C@](C)(O)CC[C@]231`, in assay [1], the IC50 is more than 1000 µM. In the assay with BJ, the EC50 is more than 90 µM.
For `CC(C)C1=CC[C@H](C(=O)NC(C)C23CC4CC(CC(C4)C2)C3)[C@@]12C=CC(=O)CC2` (some centres not stated), the IC50 in assay [1] was 85 µM; in assay [2] it was more than 1000 µM. Further, the EC50 in the assay on BJ was more than 90 µM.
Consider `CC(C)C1=CC[C@H](C(N)=O)[C@@]12C=CC(=O)CC2`, for which, in assay [1], the IC50 was more than 1000 µM. Also, in the assay on BJ, the EC50 is more than 90 µM.
With `CCOC(=O)[C@H]1CC[C@@H](C(C)C)[C@]12CCC(=O)[C@@H](OC(C)=O)C2`, the IC50 in assay [1] is more than 1000 µM. In the assay with BJ, this molecule registered an EC50 of more than 90 µM.
For `CC(C)C1=CC[C@H](C(=O)NCc2cc(F)cc(F)c2)[C@@]12C=CC(=O)CC2`, the IC50 in assay [1] and in assay [2] was more than 1000 µM in each case. The EC50 in the assay with BJ was more than 90 µM.
For `O=C1CC[C@@]2(c3ccccc3C[C@@H]2CO)[C@@H]2O[C@H]12`, in assay [1], the IC50 was more than 1000 µM. In the assay with BJ, this molecule registered an EC50 of more than 90 µM.
Regarding `CC(C)C1=CC[C@H](C(=O)NCC2CCC3CC2C3(C)C)[C@@]12C=CC(=O)CC2` (some centres not stated), the IC50 in assay [1] was 94 µM; in assay [2], more than 1000 µM. For the same molecule, the EC50 in the assay with BJ was more than 90 µM.
Take `CC(C)C1=CC[C@H](CO)[C@]12CCC(=O)[C@H]1O[C@H]12`: the IC50 in assay [1] is more than 1000 µM. In the assay on BJ, the EC50 was more than 90 µM.
The matching figures for `O=C1C=C[C@@]2(CC1)c1ccccc1C[C@@H]2CO`: more than 1000 µM and more than 90 µM.
The matching figures for `CCOC(=O)[C@H]1CC=C(C(C)C)[C@]12C=CC(=O)[C@@H](OC(C)=O)C2`: more than 1000 µM and more than 90 µM.
For the molecule `CCCCCCSc1nnc(S(=O)(=O)C[C@H]2CC=C(C(C)C)[C@]23C=CC(=O)CC3)s1`, the IC50 is 121 µM in assay [1] and more than 1000 µM in assay [2]. Also, the EC50 in the assay on BJ was more than 90 µM.
As to `CC(C)C1=CC[C@H](CO)[C@]12CC[C@@](C)(O)C[C@H]2O`, the IC50 in assay [1] is more than 1000 µM. The EC50 in the assay on BJ was more than 90 µM.
In the case of `CC(C)C1=CC[C@H](C(=O)NCCc2cccs2)[C@@]12C=CC(=O)CC2`, the IC50 in assay [1] and in assay [2] was more than 1000 µM each time. This molecule also came in with an EC50 with BJ of more than 90 µM.
`CC(C)C1=CC[C@H](CSc2nc3ccccc3o2)[C@@]12C=CC(=O)CC2`: the IC50 in assay [1] and in assay [2] was more than 1000 µM in each case. Besides, the EC50 with BJ was more than 90 µM.
As to `CC(C)C1=CC[C@H](CO)[C@@]12C=C[C@](C)(O)CC2`, in assay [1], the IC50 was more than 1000 µM. This molecule yielded an EC50 in the assay on BJ of more than 90 µM.
With `C[C@H]1CC[C@@]2(c3ccccc3C[C@@H]2C(=O)O)[C@H](O)[C@@H]1O`, in assay [1], the IC50 is more than 1000 µM. Moreover, the EC50 with BJ is more than 90 µM.
The matching figures for `C=C1C=C[C@]2(CC1)[C@@H](C(=O)OCC)CC[C@H]2C(C)C`: more than 1000 µM and more than 90 µM.
With `CC(C)C1=CC[C@H](CO[Si](C)(C)C(C)(C)C)[C@]12CC[C@@]1(O[Si](C)(C)C(C)(C)C)O[C@H]1C2`, the IC50 in assay [1] was more than 1000 µM. The molecule also returned an EC50 in the assay with BJ of more than 90 µM.
The matching figures for `CC(C)C1=CC[C@H](CO)[C@]12CC[C@](C)(O)[C@@H](O)C2`: more than 1000 µM and more than 90 µM.
The matching figures for `CCOC(=O)[C@H]1CC[C@@H](C(C)C)[C@]12C=CC(O)[C@@H](OC(C)=O)C2` (single isomer, unassigned): more than 1000 µM and more than 90 µM.
